In patent US20200297722A1, “pH-Modulated Formulations for Pulmonary Delivery” (GRIFOLS, S.A., priority 2009, published 2020):

Experiments:
[1] = calculated gallium concentration and precipitation in lung fluid after one AERx strip; design: species or system human
Excerpt: Thus, one would expect that there would be a depot-like effect in the lung in terms of the release of gallium from the solid state over time. This would result in a delayed absorption profile of gallium into the bloodstream, with a reduced CMAX and delayed TMAX. This would also reduce or eliminate side effects resulting from high systemic concentrations.

[2] = pH 7.4 and 25° C.; cited from earlier work
[3] = aqueous solubility of gallium as a function of pH; assay type: physicochemical
Excerpt: Gallium is a semi-metallic element in group 13 (IIIa) of the periodic table. Gallium is trivalent in aqueous solution (Ga^3+). The free hydrated ion Ga^3+hydrolyzes nearly completely at pH values close to neutral, readily forming highly insoluble amorphous Ga(OH)3. In addition to precipitating as hydroxides and oxyhydroxides , Ga will also form highly insoluble phosphates at pH values close to neutral. L R Bernstein (1998) provides a brief review of the solution chemistry of gallium. […] At low and high pH values, gallium has many orders of magnitude greater solubility. […] This difference in solubility can be exploited in an inhalation product by formulating gallium or its salts (e.g., gallium nitrate) at a very low or very high pH.

[4] = cited from earlier work
[5] = in lung fluid at ~pH 7.4, assumed deposition

SMILES | resulting gallium concentration in lung fluid ([1]; assumed: 25 μL of pH 2 solution equilibrated to ~pH 7.4 in 20 mL lung fluid) | excess of concentration over equilibrium solubility at pH 7.4 ([1]; assumed: 25 μL of pH 2 solution in 20 mL lung fluid) | gallium likely to precipitate out of solution [1, 5] | gallium remaining soluble [1, 5] | total aqueous solubility of gallium [2] | times greater solubility than at pH 7.4 ([3]; pH 2 versus pH 7.4) | times greater solubility than at pH 7.4 ([3]; pH 10 versus pH 7.4) | solubility in water [4]
[Ga] [gallium] | ~12.5 µM | ~12.5 fold | 96% | 8% | ~1 µM | ~10,000 times | ~500 times | 
NC[C@H]1O[C@H](O[C@H]2[C@H](O)[C@@H](O[C@H]3O[C@H](CO)[C@@H](O)[C@H](N)[C@H]3O)[C@H](N)C[C@@H]2N)[C@H](N)C[C@@H]1O [tobramycin] |  |  |  |  |  |  |  | very soluble in water
